# Measured values from patent publication US5759836A, “Osteoarthritis-associated inducable isoform of nitric oxide synthetase” (priority 1995, dated 1998).
# “Also recorded” adds a separate entry of the source.
# Columns and labels:
# NF-κB = details: cited from earlier work
# iNOS [1] = experiment: Specific activity of iNOS in cell-free extracts of RAW 264.7 cells exposed to drug during LPS induction; assay type: cell-based, murine
# Experimental: Assays for iNOS in Cell-Free Extracts. […] The reaction mixture for iNOS assay (in cell-free extracts) consists of Tris […] (pH 7.8); BSA 1 mg/ml; DTT 1 mM; CaCl2, 2 mM; FAD 10 μM; BH4 10 μM; L-arginine 30 μM; NADPH 1 mM. The assay mixture for cNOS consists of Tris 50 mM (pH 7.8); L-arginine 50 μM; calmodulin 10 μg/ml; BH4 10 μM; CaCl2 2 mM; NADPH 100 μM. RAW 264.7 cells were induced with LPS in the presence and absence of NSAIDs for 16-18 h. […] Cells were re-pelleted at 4° C. and resuspended in Tris buffer (10 mM, pH 7.4) containing 1 mg/ml each chymostatin, antipain, leupeptin and pepstatin, 1 mM DTT and 1 mM PMSF. Cells were lysed in a Polytron PT 1200 homogenizer (Kinematica AG, Switzerland) after 3 cycles of rapid freeze-thawing. The lysate was centrifuged at 16,000 rpm for 60 min at 4° C., and the supernatants were used as cell-free extracts. […] After 20 min the assays were terminated by heating the reaction mixture at 90° C. for 5 min. The precipitates were removed by centrifuging at 15,000 rpm for 20 min. Ten microliters (≈50,000 cpm) of the supernatant was spotted on activated Avicel TLC plates (Analtech, Newark, Del.). The TLC plates were developed in a solvent system consisting of ethanol:water:ammonia (80:16:4). Quantitation of the spot for L-[^3 3H]-citrulline was performed by a Bioscan System 200 Imaging Scanner. A phosphoimager can also be used for such quantification.
# The specific activity of iNOS was determined in cellfre
# extracts at a given time period as described. The nitrite and specific
# OA-NOS [2] = experiment: Sensitivity of OA-NOS to agents (Table 3 comparison)
# iNOS [3] = experiment: iNOS protein expression, Western blot, LPS-treated RAW 264.7 cells; assay type: cell-based, murine
# Experimental: Western Blot Analysis. Equal amounts of protein (50 μg) estimated by BCA reagent (Pierce, Rockford, Ill.) were loaded onto SDS-PAGE gels and stained to verify the concentrations of various protein fractions by examining the intensities of the protein bands on the gels. Western blot analysis was carried out from the same cell extracts. The Western-blotted membrane was probed with a specific anti-iNOS monoclonal antibody, as specified by Transduction Laboratories (Lexington, Ky.). The blots were developed using the ECL Western blot system (Amersham, Arlington Heights, Ill.). Quantitation of the bands was performed using a densitometer from Molecular Dynamics (Sunnyville, Calif.).
# The protein expression data are represented as
# ND = not done. NS = not significant.
# A Western blot analysis of iNOS protein was carried out in cells treated with […] LPS in the presence and absence of NSAIDs for 16-18 h.
# COX = details: cited from earlier work
# COX-2 = biological target: T1, COX-2 (Mus musculus, UniProt Q05769); assay type: cell-based, murine; details: 3 mM
# T1 construct: Cells were incubated with LPS (1 μg/ml) for 16 h to induce COX-2; endogenous in cells; host or cells: RAW 264.7 murine macrophages, LPS-induced
# T1 sequence (Q05769 18-604): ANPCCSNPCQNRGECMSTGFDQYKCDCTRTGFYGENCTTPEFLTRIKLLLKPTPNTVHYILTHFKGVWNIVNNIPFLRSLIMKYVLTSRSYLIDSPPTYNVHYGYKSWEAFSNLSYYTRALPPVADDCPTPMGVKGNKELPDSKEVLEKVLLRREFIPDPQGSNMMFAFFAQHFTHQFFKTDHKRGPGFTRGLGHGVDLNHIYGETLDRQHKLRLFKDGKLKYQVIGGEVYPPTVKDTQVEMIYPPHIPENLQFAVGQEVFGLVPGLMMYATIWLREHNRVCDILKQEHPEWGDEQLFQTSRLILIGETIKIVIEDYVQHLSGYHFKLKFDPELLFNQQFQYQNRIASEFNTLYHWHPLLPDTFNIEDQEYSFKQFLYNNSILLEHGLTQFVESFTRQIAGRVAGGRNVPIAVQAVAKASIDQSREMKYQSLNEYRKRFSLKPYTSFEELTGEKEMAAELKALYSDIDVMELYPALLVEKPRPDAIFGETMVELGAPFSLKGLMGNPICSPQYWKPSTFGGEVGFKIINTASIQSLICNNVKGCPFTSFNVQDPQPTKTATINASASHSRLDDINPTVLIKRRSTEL
# iNOS [4] = experiment: Radiolabelling of iNOS by acetyl-labelled aspirin in RAW 264.7 cells, SDS-PAGE; assay type: biochemical, murine; details: radiolabelled aspirin, 30 minutes
# Experimental: Unstimulated and LPS stimulated murine macrophage (RAW 264.7) cells were incubated with radiolabelled aspirin (acetyl group labelled) as described by Lecomte et al. (J. Biol. Chem. 269:13207-13215, 1994). After 30 minutes, the extracts were run on an SDS-PAGE gel and analyzed by phosphoimager. […] The intensity of label (^14 C) is increased, where iNOS synthesis was induced by LPS.
# However, the possibility that inhibition of iNOS catalytic activity may be due to acetylation of cofactors/precursors of iNOS has not been ruled out.
# OA-NOS [5] = experiment: Nitrite release by OA-affected articular cartilage, ex vivo organ culture; assay type: cell-based, human
smiles,measurement,setting,value
"CC(=O)Oc1ccccc1C(=O)O [Aspirin, aspirin]",activation of NF-κB,"NF-κB; 5-20 mM, suprapharmacological",interfere in the activation of NF-κB
same,NF-κB-dependent transcription,"NF-κB; aspirin 3 mM, sodium salicylate 5 mM, luciferase reporter",inhibit NF-κB-dependent transcription
same,"NF-κB activation, gel shift assays",NF-κB; same concentrations (aspirin 3 mM; sodium salicylate 5 mM),no significant effect on NF-κB activation
same,Specific activity of iNOS,iNOS [1]; 1 mM,271.7 ± 17.2 pmol/min/mg protein
same,Specific activity of iNOS,iNOS [1]; 2 mM,231.3 ± 29.8 pmol/min/mg protein
same,Specific activity of iNOS,iNOS [1]; 3 mM,162.3 ± 25.9 pmol/min/mg protein
same,"Specific activity, % inhibition","iNOS [1]; 3 mM, cell-free extracts, 16 h",47%
same,inhibition at 3000 µM,"iNOS [1]; Mus musculus, RAW264.7, 16 h, read-out: Specific activity, % inhibition, 3 mM, cell-free extracts, 16 h",48%
same,IC50,"iNOS [1]; Mus musculus, RAW264.7, read-out: IC50, specific enzyme activity of iNOS",3 mM
same,inhibition at 1000 µM,"iNOS [1]; Mus musculus, RAW264.7, read-out: Specific activity, % inhibition, 1 mM",12%
same,inhibition at 2000 µM,"iNOS [1]; Mus musculus, RAW264.7, read-out: Specific activity, % inhibition, 2 mM",25%
same,sensitivity of OA-NOS,OA-NOS [2],blocked; also recorded: shows sensitivity
same,decrease of iNOS expression,"iNOS [3]; 10 mM, Western blot, 10000 µM",~ 70%
same,"effect on iNOS expression, Western blot","iNOS [3]; LPS, 16-18 h, indomethacin 5 μM",significant decrease in the expression of iNOS
same,inhibition at 10000 µM,"iNOS [3]; Mus musculus, RAW264.7, read-out: decrease of iNOS expression, 10 mM, Western blot",69%
same,inhibition at 3000 µM,"iNOS [3]; Mus musculus, RAW264.7, read-out: inhibition of iNOS protein expression, 3 mM, approximate, densitometry",~53%
same,COX inhibition,COX,an effective inhibitor of COX
same,cyclooxygenase and peroxidase activity of COX,COX,inactivates the cyclooxygenase and not the peroxidase activity
same,% inhibition of COX-2 specific activity,COX-2,> 75%
same,acetylation of iNOS,iNOS [4],shows acetylation of iNOS
same,effect on nitrite accumulation / NOS expression in OA cartilage,OA-NOS [5],blocked iNOS expression in OA cartilage
same,rank order of inhibition of spontaneous nitrite accumulation,OA-NOS [5],aspirin>indomethacin>sodium salicylate
same,inhibition at 2000 µM,"OA-NOS [5]; 2 mM, human osteoarthritic cartilage ex vivo, read-out: suppression of accumulation of nitrites",≥ 50%
